# Like-named read-outs stand apart in the source and are kept apart here.
# Key:
# P. mirabilis LSI 4698 [1] = assay: reference broth microdilution (rBMD); type: cell-based; settings: Proteus mirabilis, LSI4698
# E. coli LSI 770 [2] = assay: CytoSPAR BLAST antibiotic susceptibility test; type: cell-based; settings: for MIC: Escherichia coli
# Text: (§1) The disclosed technology, which is referred to as the CytoSPAR BLAST (Bacteria Labeling Antibiotic Susceptibility Test) system, is used to quantitatively assess bacterial minimal inhibitory concentration of antibiotics for in vitro susceptibility testing. Used as an aid in diagnosis for clinicians in determining potential treatment options for patients suspected of having a microbial infection, BLAST is intended to determine susceptibility of microorganisms to the listed antibiotics (or other antimicrobials) according to manufacturer's standards. The system is intended for use with clinical isolates from liquid culture and colonies grown on agar (solid medium) or directly from urine samples. Certain implementations of BLAST determine antibiotic susceptibility for a wide range of bacteria obtained from various types of patient samples, including samples from individuals suffering from urinary tract infections. The disclosed technology includes a high-throughput assay that directly detects bacterial susceptibility to a library of frequently used antibiotics and covers both Gram-negative and Gram-positive bacteria.
# (§2) The test incorporates a non-canonical amino acid (ncAA) into newly produced proteins. The incorporated ncAA includes a reactive group which allows a specific modification and detection of the living bacteria. The assay involves bacterial incorporation of the ncAA, a chemical reaction between a reactive group and a fluorophore-tagged ligand, and detection of the newly fluorescent-tagged bacteria using a fluorescent plate reader or functionally similar device. The ncAA is added to bacterial growth media and is incorporated into newly synthesized bacterial proteins. The reactive groups on the ncAA are not naturally found in bacteria and act as a specific reactive group for bacteria undergoing active protein synthesis. […] The entire process is performed in a microtiter filter plate for high-throughput scale-up. Alternatively, a normal 96-well plate can also be used in which case centrifugation is used to wash the plate instead of filtration.
# (§3) In an example embodiment, bacterial samples are first diluted and incubated in acclimatization media. After treatment with one or more antimicrobials, the ncAA is added and is taken up by living bacteria during protein biosynthesis in a process called labeling. […] The Click-Chemistry reaction between the alkyne group of the ncAA and the azide group of the fluorophore-tagged ligand requires the presence of copper in the reduced state-copper (I). In other implementations, the functional groups of the click chemistry reaction can be changed so that the ncAA has the azide group and the dye has the alkyne group. […] Other reducing agents may be used in the BLAST assay, for example, aldoses (sugars) including glyceraldehyde, glucose, and ribose to replace sodium ascorbate. Likewise, alternate chelators may be used (e.g., histidine in place of BTTAA). In some implementations, metal-free click chemistry reactions are performed without using copper.
# (§4) Using the BLAST system, tests can be performed on isolates or direct urine samples. Isolates may be from urine, blood, or other body fluids. Isolated bacteria may be either Gram-positive or Gram-negative. In an example implementation, living bacterial samples in acclimatization media (Buffer A) are distributed in a microtiter filter plate, wherein certain predetermined wells include antibiotics of interest at different concentrations. These antibiotics are arrayed with increasing concentrations in adjacent wells so that the bacterial response can be measured against each specific concentration. The response is measured quantitatively, and a value that corresponds to the ability of the bacteria to metabolize and grow is measured.
# K. pneumoniae LSI CT1045 [3] = assay: CytoSPAR BLAST antibiotic susceptibility test; type: cell-based
# Text: as §1, §2, §3, §4
# S. aureus ATCC 29213 [4] = assay: CytoSPAR BLAST antibiotic susceptibility test; type: cell-based; settings: for S, I, R: susceptible, intermediate, resistant category; for MIC: Staphylococcus aureus
# Text: as §1, §2, §3, §4
# K. pneumoniae LSI 4552 [5] = assay: CytoSPAR BLAST antibiotic susceptibility test; type: cell-based
# Text: as §1, §2, §3, §4
# P. mirabilis LSI 4698 [6] = assay: CytoSPAR BLAST antibiotic susceptibility test; type: cell-based
# Text: as §1, §2, §3, §4
# E. coli ATCC 25922 [7] = assay: CytoSPAR BLAST antibiotic susceptibility test; type: cell-based; settings: for MIC: Escherichia coli, 5 × 10^5 CFU/mL; for S, I, R: susceptible, intermediate, resistant category
# Text: as §1, §2, §3, §4
# P. mirabilis LSI 4933 [8] = assay: CytoSPAR BLAST antibiotic susceptibility test; type: cell-based
# Text: as §1, §2, §3, §4
# E. coli LSI 770 [9] = assay: reference broth microdilution (rBMD); type: cell-based; settings: Escherichia coli, LSI770
# Method: (§5) Following optimization of the BLAST assay, two other tests were performed in which 12 antibiotics (covering different classes) and 8 bacterial strains (Gram-positive and Gram-negative) were assayed using the same method as described above. Different bacterial strains were tested against different antibiotics and for each pair tested, the BLAST MIC value was compared to the CLSI QC range where available, or to the reference broth microdilution (rBMD) MIC which was determined in parallel with the BLAST assay following the CLSI protocols (see references [9]).
# (§6) The inoculated urine cultures were incubated overnight at 35+2° C. Each urine culture was centrifuged, and the sediment used to prepare the BLAST inoculum of 5.0×10^5 CFU/mL to start the assay as described in the protocols section. […] The spiked urine samples were tested in parallel with isolates and the resultant BLAST MIC values were compared. In addition to the BLAST test, all the samples were also tested using the reference broth microdilution (rBMD) method and the MIC values were compared.
# S. aureus ATCC 29213 [10] = assay: reference broth microdilution (rBMD); type: cell-based
# Method: as §5, §6
# K. pneumoniae LSI CT1045 [11] = assay: reference broth microdilution (rBMD); type: cell-based; settings: Klebsiella pneumoniae, LSICT1045
# Method: as §5
# K. pneumoniae LSI 4552 [12] = assay: reference broth microdilution (rBMD); type: cell-based; settings: Klebsiella pneumoniae, LSI4552
# Method: as §5
# P. mirabilis LSI 4933 [13] = assay: reference broth microdilution (rBMD); type: cell-based; settings: Proteus mirabilis, LSI4933
# Method: as §5
# [14] = tested on: E. coli, S. saprophyticus and S. aureus; settings: for E. coli, S. saprophyticus and S. aureus as reported by the FDA and CLSI (Table 5); cited from earlier work
# E. coli ATCC 25922 [15] = settings: E. coli strain #25922 (ATCC); strain designation, not a BLAST readout; cited from earlier work
# E. coli strain #14 (CDC) [16] = settings: strain designation, not a BLAST readout; cited from earlier work
# [17] = tested on: E. coli strain #551 (CDC); settings: strain designation, not a BLAST readout; cited from earlier work
# P. aeruginosa ATCC 27853 = assay: CytoSPAR BLAST antibiotic susceptibility test; type: cell-based; settings: susceptible, intermediate, resistant category
# Text: as §1, §2, §3, §4
# E. coli = settings: cited from earlier work
# S. saprophyticus = settings: cited from earlier work
# [18] = tested on: E. coli strain #551 (CDC); assay: microbe, parasite or virus in culture; settings: Escherichia coli, read-out: BLAST MIC, E. coli resistant strain (CDC 551); […]10^8 CFUs/mL; cut-off 0.7; FIG. 11C
# Text: (§7) The disclosed technology, which is referred to as the CytoSPAR BLAST (Bacteria Labeling Antibiotic Susceptibility Test) system, is used to quantitatively assess bacterial minimal inhibitory concentration of antibiotics for in vitro susceptibility testing. Used as an aid in diagnosis for clinicians in determining potential treatment options for patients suspected of having a microbial infection, BLAST is intended to determine susceptibility of microorganisms to the listed antibiotics (or other antimicrobials) according to manufacturer's standards. The system is intended for use with clinical isolates from liquid culture and colonies grown on agar (solid medium) or directly from urine samples. […]
# (§8) The test incorporates a non-canonical amino acid (ncAA) into newly produced proteins. […] The assay involves bacterial incorporation of the ncAA, a chemical reaction between a reactive group and a fluorophore-tagged ligand, and detection of the newly fluorescent-tagged bacteria using a fluorescent plate reader or functionally similar device. […]
# (§9) Using the BLAST system, tests can be performed on isolates or direct urine samples. […] These antibiotics are arrayed with increasing concentrations in adjacent wells so that the bacterial response can be measured against each specific concentration. […]
# E. coli strain #14 (CDC) [19] = assay: microbe, parasite or virus in culture; settings: Escherichia coli, read-out: BLAST MIC
# Text: as §7, §8, §9
# [20] = susceptible, intermediate, resistant category
compound,measurement,setting,value
"Cc1nnc(SCC2=C(C(=O)O)N3C(=O)[C@@H](NC(=O)Cn4cnnn4)[C@H]3SC2)s1 [Cefazolin, cefazolin]",MIC,P. mirabilis LSI 4698 [1],16 µg/mL
same,"S, I, R","E. coli LSI 770 [2]; E. coli LSI 770, susceptible, intermediate, resistant category",Resistant
same,MIC,"E. coli LSI 770 [2]; LSI770, read-out: MIC BLAST Isolates",> 142 µg/mL
same,MIC,"E. coli LSI 770 [2]; LSI770, read-out: MIC BLAST Spiked Urine",> 142 µg/mL
same,MIC,"E. coli LSI 770 [2]; LSI770, Table 7, E. coli LSI 770, read-out: MIC BLAST",> 142 µg/mL
same,MIC,"K. pneumoniae LSI CT1045 [3]; Klebsiella pneumoniae, LSICT1045, Table 7",> 142 µg/mL
same,"S, I, R",K. pneumoniae LSI CT1045 [3]; [20],Resistant
same,BLAST MIC,"S. aureus ATCC 29213 [4]; S. aureus ATCC 29213, FIG. 19",< 0.125 µg/mL
same,"S, I, R",S. aureus ATCC 29213 [4]; S. aureus ATCC 29213,Susceptible
same,MIC,"S. aureus ATCC 29213 [4]; ATCC29213, S. aureus ATCC 29213, 5×10^6 CFUs/mL, cutoff 0.8, FIGS. 19-21, read-out: BLAST MIC",< 0.125 µg/mL
same,MIC,"S. aureus ATCC 29213 [4]; ATCC29213, Table 7, S. aureus ATCC 29213, read-out: MIC BLAST",0.14 µg/mL
same,MIC,"S. aureus ATCC 29213 [4]; ATCC29213, Table 8, S. aureus ATCC 29213, isolates, 5 × 10^5 CFU/mL, read-out: MIC BLAST Isolates",0.14 µg/mL
same,MIC,"S. aureus ATCC 29213 [4]; ATCC29213, Table 8, S. aureus ATCC 29213, spiked urine sample, 5 × 10^5 CFU/mL, read-out: MIC BLAST Spiked Urine",0.28 µg/mL
same,MIC,"S. aureus ATCC 29213 [4]; ATCC29213, read-out: MIC BLAST, Table 6, S. aureus ATCC 29213, optimized BLAST, cutoff 0.8",0.125 µg/mL
same,MIC,"K. pneumoniae LSI 4552 [5]; Klebsiella pneumoniae, LSI4552, Table 7",2 µg/mL
same,"S, I, R",K. pneumoniae LSI 4552 [5]; [20],Susceptible
same,MIC,"P. mirabilis LSI 4698 [6]; Proteus mirabilis, LSI4698, Table 7",4.4 µg/mL
same,"S, I, R",P. mirabilis LSI 4698 [6]; [20],Susceptible
same,BLAST MIC,"E. coli ATCC 25922 [7]; 5×10^6 CFUs/mL, cutoff 0.8, FIGS. 16-18",2.0 µg/mL
same,MIC,"E. coli ATCC 25922 [7]; ATCC25922, Table 8, isolates, read-out: MIC BLAST Isolates",4.44 µg/mL
same,MIC,"E. coli ATCC 25922 [7]; ATCC25922, Table 8, spiked urine sample, read-out: MIC BLAST Spiked Urine",1.11 µg/mL
same,"S, I, R",E. coli ATCC 25922 [7],Susceptible
same,MIC,"P. mirabilis LSI 4933 [8]; Proteus mirabilis, LSI4933, Table 7",4.4 µg/mL
same,"S, I, R",P. mirabilis LSI 4933 [8]; [20],Susceptible
same,MIC,E. coli LSI 770 [9],> 256 µg/mL
same,MIC,"S. aureus ATCC 29213 [10]; Staphylococcus aureus, ATCC29213",0.5 µg/mL
same,MIC rBMD,"S. aureus ATCC 29213 [10]; Table 8, S. aureus ATCC 29213, geometric mean MIC rounded to nearest 2-fold dilution, n = 3",0.5 µg/mL
same,MIC,K. pneumoniae LSI CT1045 [11],> 256 µg/mL
same,MIC,K. pneumoniae LSI 4552 [12],8 µg/mL
same,MIC,P. mirabilis LSI 4933 [13],8 µg/mL
"O=C1CN(/N=C/c2ccc([N+](=O)[O-])o2)C(=O)N1 [Nitrofurantoin, nitrofurantoin]",CLSI QC range,[14],4 to 16 µg/mL
same,susceptibility of the strain as listed,E. coli ATCC 25922 [15],Susceptible
same,susceptibility of the strain as listed,E. coli strain #14 (CDC) [16],Intermediate resistance
same,susceptibility of the strain as listed,[17],Resistant
same,"S, I, R",S. aureus ATCC 29213 [4]; S. aureus ATCC 29213,Susceptible
same,MIC,"S. aureus ATCC 29213 [4]; ATCC29213, S. aureus ATCC 29213, 5×10^5 CFUs/mL, FIG. 15, read-out: BLAST MIC",4 µg/mL
same,MIC,"S. aureus ATCC 29213 [4]; ATCC29213, Table 6, S. aureus ATCC 29213, optimized BLAST, cutoff 0.8, read-out: MIC BLAST",4 µg/mL
same,"S, I, R",P. aeruginosa ATCC 27853,Resistant
same,"S, I, R",E. coli ATCC 25922 [7],Susceptible
same,CLSI breakpoint I,E. coli; intermediate,64 µg/mL
same,FDA breakpoint I,E. coli; intermediate,64 µg/mL
same,CLSI breakpoint S,E. coli; susceptible,32 µg/mL
same,FDA breakpoint S,E. coli; susceptible,32 µg/mL
same,CLSI breakpoint I,S. saprophyticus; intermediate,64 µg/mL
same,FDA breakpoint I,S. saprophyticus; intermediate,64 µg/mL
same,CLSI breakpoint S,S. saprophyticus; susceptible,32 µg/mL
same,FDA breakpoint S,S. saprophyticus; susceptible,32 µg/mL
same,MIC,[18],32 µg/mL
same,MIC,E. coli strain #14 (CDC) [19],32 µg/mL

# — patent US20250115943A1, “SYSTEM AND METHOD FOR ANTIMICROBIAL SUSCEPTIBILITY TESTING” (priority 2023, published 2025)
